Experimental data from patent US12716888B2, “Composition for diagnosis or treatment of anticancer drug resistance” (priority 2020, dated 2026).

What was measured:
[1] = tested on: ECF-resistant MKN-74 cells; assay: Crystal violet staining and WST-1 analysis of regrowth after ECF treatment of NINJ2 knockdown cells; type: cell-based, human; settings: 3 weeks after ECF treatment; NINJ2 knockdown ECF-resistant MKN-74 cells
Protocol: To evaluate whether NINJ2 is involved in drug resistance, a stable NINJ2 knockdown (K/D) ECF-resistant cancer cell line was prepared using shRNA lentiviral particles and puromycin. More specifically, for stable NINJ2 knockdown in ECF-resistant MKN-74 cells, two shRNAs (TRCN0000063773 (Clone-1) and TRCN0000063775 (Clone-2)) targeting different partial regions of NINJ2 genes (Isoform-1, Isoform-2 and Isoform-3) as shown in Table 1 below were used, and a non-targeting pLKO.1-puro shRNA control (SHC002) was used as a negative control. The shRNA clones (TRCN0000063773, TRCN0000063775 and SHC002) containing the pMDLg/pRRE, pRSV-Rev and pMD2.G plasmids, respectively, were transfected into 293T cells using Fugene HD (Promega) according to the manufacturer's instructions. After 48 hours, each supernatant was collected and filtered, and ECF-resistant MKN-74 cells were transduced with lentiviral particles and cultured in a growth medium containing puromycin. After NINJ2 knockdown in the lentivirus-transduced MKN-74 cells was confirmed using qRT-PCR, the cells were treated with ECF, and an examination was made as to whether cancer cells in the negative control (Mock) and the shNINJ2 groups (clone 1 and clone 2) re-grew.

[2] = tested on: ECF-resistant cancer cells (RES) from the MKN-28/74 cell line; assay: Nude mouse xenograft of ECF-resistant MKN-28/74 cells given ECF and siRNA; type: in vivo, Balb/c nude mice; settings: ECF (5.7 mg/kg epirubicin, 6.67 mg/kg cisplatin, 22 mg/kg 5-FU) intratumorally once a week; NINJ2 mRNA expression inhibited
Protocol: FIGS. 9A and 9B show the results of measuring changes in tumor volume and weight after transplanting wild-type or scrambled siRNA RES and siNINJ2 RES cancer cell lines from the MKN-28/74 cell line into nude mice and then administering ECF and siRNA to the nude mice when the tumor volume reached 100 mm^3, according to one example of the present invention.
A mouse model was prepared by xenografting Balb/c nude mice with the spheroids prepared from the MKN-28/74 cell line by the method of Example 3. Specifically, […] ECF-resistant cancer cells (ECF-R cancer cells) and parental cancer cells were subcutaneously injected into Balb/c nude mice, respectively, and an examination was made as to whether the animal model xenografted with the ECF-resistant cancer cells (RES) established in vitro had acquired ECF drug resistance. […] To this end, 5.7 mg/kg of epirubicin, 6.67 mg/kg of cisplatin and 22 mg/kg of 5-FU were administered intratumorally to xenograft model mice having a tumor size of 100 mm^3 once a week for 15 days, and the tumor weight and the tumor volume were measured every 3 days using digital calipers. […]
Referring to FIG. 9A, it was confirmed that the tumor volume changed after the ECF drugs were administered to the animal model xenografted with each cell line group. FIG. 9B depicts graphs showing the results of quantifying the changes in the tumor volume and weight.

Row | Substance | recurrence and regrowth of cancer cells compared to negative control (Mock) [1] | tumor volume compared to the RES group [2] | tumor weight compared to the RES group [2]
1 | clone-1: NINJ2-targeting shRNA, lentiviral; target region SEQ ID NO: 5, hairpin sequence SEQ ID NO: 9 (guide CCGGCGTGGTCATTGCACGGCTGAACTCGAGTTCAGCCGTGCAATGACCACGTTTTTG) | significantly inhibited | – | –
2 | clone-2: NINJ2-targeting shRNA, lentiviral; target region SEQ ID NO: 6, hairpin sequence SEQ ID NO: 10 (guide CCGGCTGAACCTGAATGAGGTAGAACTCGAGTTCTACCTCATTCAGGTTCAGTTTTTG) | significantly inhibited | – | –
3 | siNINJ2: siRNA against NINJ2, sense SEQ ID NO: 11 and antisense SEQ ID NO: 12 (sense GUAAGGCAUGUCUGUCUAAGGCC; antisense GGCCUUAGACAGACAUGCCUUAC; listed as RNA, chemistry not given here) | – | significantly decreased | significantly decreased
